From patent publication US20140080772A1, “TREATMENTS FOR MELANOMA” (The Board of Regents of the University of Texas System, priority 2012, published 2014)
Read-outs that look alike come from different tables or passages of the source.

Key:
[1] = mouse, in vivo; cited from earlier work
KU812 = details: 20 mg/kg/day; cited from earlier work
WT Bcr-Abl [2] = biological target: T1, WT Bcr-Abl (Homo sapiens, UniProt P00519); details: read-out: IC50, Bcr-Abl autophosphorylation and downstream kinase activity; K562 cells; cited from earlier work
Target sequence in this assay (P00519 with tags, fused parts or gaps): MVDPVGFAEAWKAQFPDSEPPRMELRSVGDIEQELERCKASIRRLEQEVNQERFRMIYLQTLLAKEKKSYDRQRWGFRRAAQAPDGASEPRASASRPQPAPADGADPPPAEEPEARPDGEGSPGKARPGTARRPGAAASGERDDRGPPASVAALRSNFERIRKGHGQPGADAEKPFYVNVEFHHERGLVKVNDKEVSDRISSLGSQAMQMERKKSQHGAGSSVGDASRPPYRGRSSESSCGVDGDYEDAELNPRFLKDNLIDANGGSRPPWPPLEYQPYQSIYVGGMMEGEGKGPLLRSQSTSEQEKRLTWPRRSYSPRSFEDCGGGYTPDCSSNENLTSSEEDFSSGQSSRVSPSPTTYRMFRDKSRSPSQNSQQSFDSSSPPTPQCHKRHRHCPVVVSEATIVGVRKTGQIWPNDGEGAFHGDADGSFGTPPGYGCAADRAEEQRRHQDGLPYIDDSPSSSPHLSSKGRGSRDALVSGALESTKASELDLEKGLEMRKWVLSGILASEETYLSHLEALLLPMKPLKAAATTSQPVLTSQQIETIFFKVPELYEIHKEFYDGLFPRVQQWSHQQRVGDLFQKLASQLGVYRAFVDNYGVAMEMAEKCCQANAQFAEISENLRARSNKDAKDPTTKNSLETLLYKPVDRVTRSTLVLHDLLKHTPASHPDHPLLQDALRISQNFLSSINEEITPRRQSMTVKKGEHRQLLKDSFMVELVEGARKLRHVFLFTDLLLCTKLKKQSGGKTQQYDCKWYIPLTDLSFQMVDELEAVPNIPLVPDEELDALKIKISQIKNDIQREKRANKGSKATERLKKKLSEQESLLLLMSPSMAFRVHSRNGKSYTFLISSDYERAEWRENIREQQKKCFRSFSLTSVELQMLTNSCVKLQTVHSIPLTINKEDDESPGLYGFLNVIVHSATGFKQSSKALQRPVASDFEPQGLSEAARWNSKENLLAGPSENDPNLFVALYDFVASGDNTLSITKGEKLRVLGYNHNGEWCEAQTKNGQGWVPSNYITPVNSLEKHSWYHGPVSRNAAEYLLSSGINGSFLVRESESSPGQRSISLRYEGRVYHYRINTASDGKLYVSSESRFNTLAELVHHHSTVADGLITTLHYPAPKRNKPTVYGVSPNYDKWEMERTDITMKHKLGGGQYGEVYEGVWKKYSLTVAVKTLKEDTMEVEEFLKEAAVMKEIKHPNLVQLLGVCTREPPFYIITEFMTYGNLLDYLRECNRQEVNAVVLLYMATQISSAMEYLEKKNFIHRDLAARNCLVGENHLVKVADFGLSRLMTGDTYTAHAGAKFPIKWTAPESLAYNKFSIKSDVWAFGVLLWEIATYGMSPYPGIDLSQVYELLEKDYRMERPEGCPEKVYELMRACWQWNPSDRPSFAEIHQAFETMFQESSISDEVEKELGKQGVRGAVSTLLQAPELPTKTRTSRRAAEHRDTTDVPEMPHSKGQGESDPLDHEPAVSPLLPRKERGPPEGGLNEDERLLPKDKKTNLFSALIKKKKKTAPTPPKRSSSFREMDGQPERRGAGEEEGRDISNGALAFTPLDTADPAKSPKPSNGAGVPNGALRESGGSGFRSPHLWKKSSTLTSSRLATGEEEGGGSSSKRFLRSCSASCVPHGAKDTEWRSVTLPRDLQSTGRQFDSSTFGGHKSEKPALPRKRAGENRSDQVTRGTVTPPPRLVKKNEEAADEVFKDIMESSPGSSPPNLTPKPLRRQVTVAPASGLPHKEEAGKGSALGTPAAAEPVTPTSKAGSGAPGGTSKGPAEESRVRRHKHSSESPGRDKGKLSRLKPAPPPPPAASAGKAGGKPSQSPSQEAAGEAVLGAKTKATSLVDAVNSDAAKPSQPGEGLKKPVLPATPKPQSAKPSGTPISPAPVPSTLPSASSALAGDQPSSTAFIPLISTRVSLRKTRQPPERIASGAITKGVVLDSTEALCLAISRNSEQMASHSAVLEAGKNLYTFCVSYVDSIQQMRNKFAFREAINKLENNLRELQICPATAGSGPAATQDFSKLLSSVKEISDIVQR

WT Bcr-Abl [3] = biological target: T1, WT Bcr-Abl; details: read-out: IC50, Bcr-Abl autophosphorylation and downstream kinase activity; 293T cells; cited from earlier work
Target sequence in this assay (P00519 28-1130 limits assumed): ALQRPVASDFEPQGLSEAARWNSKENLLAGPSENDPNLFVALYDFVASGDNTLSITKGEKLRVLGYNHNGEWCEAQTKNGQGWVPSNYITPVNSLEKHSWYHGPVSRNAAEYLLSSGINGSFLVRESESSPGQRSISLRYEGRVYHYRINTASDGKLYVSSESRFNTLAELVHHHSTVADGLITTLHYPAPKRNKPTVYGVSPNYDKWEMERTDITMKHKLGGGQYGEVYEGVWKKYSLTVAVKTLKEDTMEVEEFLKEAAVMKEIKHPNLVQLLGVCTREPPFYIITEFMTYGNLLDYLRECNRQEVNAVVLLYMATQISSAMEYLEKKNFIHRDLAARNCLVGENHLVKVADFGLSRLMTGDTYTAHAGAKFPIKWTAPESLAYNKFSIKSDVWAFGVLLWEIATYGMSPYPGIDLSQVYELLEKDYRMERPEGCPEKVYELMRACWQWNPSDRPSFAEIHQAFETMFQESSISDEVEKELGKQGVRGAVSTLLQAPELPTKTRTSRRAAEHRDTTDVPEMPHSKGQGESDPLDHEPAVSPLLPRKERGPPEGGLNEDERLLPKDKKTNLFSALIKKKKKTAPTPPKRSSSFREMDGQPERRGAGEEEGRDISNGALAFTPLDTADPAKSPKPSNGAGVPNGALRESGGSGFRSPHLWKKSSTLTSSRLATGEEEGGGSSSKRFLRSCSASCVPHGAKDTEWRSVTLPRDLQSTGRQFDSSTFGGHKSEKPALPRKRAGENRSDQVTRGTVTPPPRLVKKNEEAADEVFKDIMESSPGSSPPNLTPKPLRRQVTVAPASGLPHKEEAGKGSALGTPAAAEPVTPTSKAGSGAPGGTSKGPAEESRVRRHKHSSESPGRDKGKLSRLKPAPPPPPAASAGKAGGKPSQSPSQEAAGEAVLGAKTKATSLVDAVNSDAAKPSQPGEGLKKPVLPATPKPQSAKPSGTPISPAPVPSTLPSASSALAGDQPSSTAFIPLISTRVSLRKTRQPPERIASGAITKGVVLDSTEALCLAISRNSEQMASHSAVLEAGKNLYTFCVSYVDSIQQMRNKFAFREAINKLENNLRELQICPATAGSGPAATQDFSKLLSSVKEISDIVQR

S6K1 = S6K1 (Homo sapiens, UniProt P23443); details: cited from earlier work
[4] = test system: M481 metastatic melanoma cells; experiment: M481 melanoma xenograft tumor growth in NSG mice; format: in vivo
Method: M481 metastatic melanoma cells were implanted in s.c. tissue on right flanks of NSG mice. […] Tumors were measured every 2-3 day with calipers.
(FIG. 6A) M481 efficiently metastasizing melanoma cells were implanted in s.c. tissue on right flanks of NSG mice. […] Tumors were measured every 2-3 day with calipers. Mean±SD is reported.
Subcutaneous injections of human melanoma cells were performed in each flank and the interscapular region of NOD.CB17-Prkdcscid Il2rgtm1Wjl/SzJ (NOD/SCID IL2Rγ^null, NSG) mice (Jackson Laboratories) in a final volume of 50 μl.
In these experiments metastatic melanoma cells were implanted in s.c. tissue on right flanks of NSG mice. […] Tumors were measured every 2-3 day with calipers and bioluminescence imaging was performed at day 14.
To address whether inhibition of Lyn kinase can block the ability of melanoma cells to grow in our xenograft model, they performed an in vivo drug treatment. NSG mice were injected with a 100-cell dose of a metastatic melanoma, M481, which expressed a GFP-luciferase construct. […] We tested two different doses, 4 mg/kg body mass/day and 20 mg/kg/day. Control mice were injected with 5% DMSO solution.

[5] = test system: human melanocytes (hMEL) and human umbilical cord blood cells (hUCB)
Method: (§1) Melanomas and hUCB were treated with 50 μM of cardiac glycosides or DMSO for 72 h in triplicates. Viability was measured with CellTiter-Glo. […] All error bars denote SD.
(§2) In these in vitro assays, cells were treated with various doses of cardiac glycosides or DMSO for 72 hr in triplicate. Viability was measured with CellTiter-Glo.
(§3) Again, cells were treated in vitro with various doses of RO 31-8220 or DMSO for 72 hr in triplicates. Viability was measured with CellTiter-Glo.

[6] = test system: JNK, glycogen synthase, MAPK, ERK2; details: rat adipocytes and L6 myotubes; cited from earlier work
[7] = test system: voltage-dependent Na+ channels; details: cited from earlier work
PKCα = PKCα (Homo sapiens, UniProt P17252); details: cited from earlier work
[8] = test system: primary melanomas (M715, M711, M741 and M405); experiment: Dose response viability assay (CellTiter-Glo) on primary human melanoma cells; format: cell-based; details: 72 hr, triplicate
Method: as §1, §2, §3

MAPKAP-K1b = MAPKAP-K1b (Homo sapiens, UniProt P51812); details: cited from earlier work
[9] = test system: M214 metastatic melanoma cells; format: in vivo, NSG mice; details: digitoxin 0.5 mg/kg/day; dacarbazine 5 mg/kg every other day; alone or in combination
Method: M214 metastatic melanoma cells were implanted in s.c. tissue on right flanks of NSG mice. When tumors became palpable, mice were randomized to four different treatments. […] Control mice received equivalent volume of DMSO. […] Tumors were measured every 2-3 day with calipers. Mean^±SD is reported (*P<0.05, **P<0.005, ***P<0.0005, ****P<0.0001, ns: not significant; two-tailed Student's t test). […] The statistical significance of differences between mean values was assessed by the Student's t-test.
In these experiments, metastatic melanoma cells were injected subcutaneously in the right flanks of immunocompromised NSG mice. When tumors became palpable, mice were randomized to four different treatments. […] Control mice received equivalent volume of DMSO.

[10] = in vivo; cited from earlier work
[11] = 72 hr, triplicate, CellTiter-Glo

Chain of S6K1 (P23443 whole entry, species assumed): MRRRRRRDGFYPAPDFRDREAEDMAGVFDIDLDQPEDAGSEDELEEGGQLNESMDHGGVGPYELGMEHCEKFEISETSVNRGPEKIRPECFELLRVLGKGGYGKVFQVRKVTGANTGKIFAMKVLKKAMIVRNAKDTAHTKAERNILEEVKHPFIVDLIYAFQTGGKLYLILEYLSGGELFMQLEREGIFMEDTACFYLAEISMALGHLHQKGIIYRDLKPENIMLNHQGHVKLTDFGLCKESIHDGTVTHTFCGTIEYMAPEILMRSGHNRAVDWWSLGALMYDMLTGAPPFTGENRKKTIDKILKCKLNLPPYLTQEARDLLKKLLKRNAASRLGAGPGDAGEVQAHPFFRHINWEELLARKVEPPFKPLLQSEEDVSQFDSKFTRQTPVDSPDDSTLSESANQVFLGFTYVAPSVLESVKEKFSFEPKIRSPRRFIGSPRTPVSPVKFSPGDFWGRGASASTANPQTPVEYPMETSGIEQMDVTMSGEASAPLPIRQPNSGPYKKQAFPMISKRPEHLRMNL
Chain of MAPKAP-K1b (P51812 whole entry, species assumed): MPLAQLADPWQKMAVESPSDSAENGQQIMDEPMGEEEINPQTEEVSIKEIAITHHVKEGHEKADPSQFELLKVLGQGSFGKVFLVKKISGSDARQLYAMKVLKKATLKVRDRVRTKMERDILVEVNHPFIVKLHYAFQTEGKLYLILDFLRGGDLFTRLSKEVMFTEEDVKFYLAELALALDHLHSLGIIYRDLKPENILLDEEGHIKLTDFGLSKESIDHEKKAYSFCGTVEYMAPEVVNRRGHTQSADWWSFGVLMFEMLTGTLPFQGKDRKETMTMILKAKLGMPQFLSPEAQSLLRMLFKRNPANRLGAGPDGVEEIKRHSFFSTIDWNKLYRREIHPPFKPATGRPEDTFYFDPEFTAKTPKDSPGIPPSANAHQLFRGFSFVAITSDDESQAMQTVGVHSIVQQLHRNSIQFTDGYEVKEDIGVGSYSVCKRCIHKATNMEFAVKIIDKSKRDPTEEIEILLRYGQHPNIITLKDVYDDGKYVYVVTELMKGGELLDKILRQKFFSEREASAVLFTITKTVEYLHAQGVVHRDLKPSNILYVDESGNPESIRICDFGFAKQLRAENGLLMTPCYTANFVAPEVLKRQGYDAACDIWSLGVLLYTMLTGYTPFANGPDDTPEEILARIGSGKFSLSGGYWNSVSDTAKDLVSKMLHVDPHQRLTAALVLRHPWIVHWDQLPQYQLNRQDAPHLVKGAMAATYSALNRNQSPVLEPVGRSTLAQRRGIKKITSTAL

Cc1ccc(NC(=O)c2ccc(CN3CC[C@H](N(C)C)C3)c(C(F)(F)F)c2)cc1Nc1nccc(-c2cncnc2)n1 [Bafetinib, bafetinib]
bioavailability value (BA) [1]: 32% | maximal tolerated dose [1]: 200 mg/kg/day | adverse effects (KU812): without adverse effects | IC50 (WT Bcr-Abl [2]): 11 nM | IC50 (WT Bcr-Abl [3]): 22 nM

Cn1cc(C2=C(c3cn(CCCSC(=N)N)c4ccccc34)C(=O)NC2=O)c2ccccc21 [RO 31-8220]
IC50 (S6K1): 38 nM | tumor growth ([4]; RO 31-8220 3 mg/kg i.p. vs DMSO): inhibited the growth | toxicity to normal cells (viability) [5, 11]: not to normal cells | effect on JNK and glycogen synthase [6]: Activates | effect on MAPK and ERK2 [6]: inhibits | inhibition of voltage-dependent Na+ channels [7]: in the micromolar range | IC50 (PKCα): 33 nM | toxicity to primary melanomas (viability) [8]: toxic to all tested primary melanomas | IC50 (MAPKAP-K1b): 3 nM

C[C@H]1O[C@@H](O[C@H]2[C@@H](O)C[C@H](O[C@H]3[C@@H](O)C[C@H](O[C@H]4CC[C@@]5(C)[C@H](CC[C@@H]6[C@@H]5CC[C@]5(C)[C@@H](C7=CC(=O)OC7)CC[C@]65O)C4)O[C@@H]3C)O[C@@H]2C)C[C@H](O)[C@@H]1O [digitoxin]
tumor growth ([4]; digitoxin 0.5 mg/kg i.p. vs DMSO): inhibited the growth | toxicity to normal cells (viability) [5, 11]: not to normal cells | toxicity to primary melanomas (viability) [8]: toxic to all tested primary melanomas | growth of human melanoma xenografts [9]: slowed the growth

C[C@H]1O[C@@H](O[C@H]2[C@@H](O)C[C@H](O[C@H]3[C@@H](O)C[C@H](O[C@H]4CC[C@@]5(C)[C@H](CC[C@@H]6[C@@H]5C[C@@H](O)[C@]5(C)[C@@H](C7=CC(=O)OC7)CC[C@]65O)C4)O[C@@H]3C)O[C@@H]2C)C[C@H](O)[C@@H]1O [digoxin]
half-life [10]: about 36 hours | plasma concentration at which adverse effects are rare [10]: < 0.8 ng/mL | toxicity to normal cells (viability) [5]: not to normal cells | toxicity to primary melanomas (viability) [8]: toxic to all tested primary melanomas

C[C@H]1O[C@@H](O[C@H]2[C@@H](O)C[C@H](O[C@H]3[C@@H](O)C[C@H](O[C@H]4CC[C@@]5(C)[C@H](CC[C@@H]6[C@@H]5CC[C@]5(C)[C@@H](C7=CC(=O)OC7)[C@@H](O)C[C@]65O)C4)O[C@@H]3C)O[C@@H]2C)C[C@H](O)[C@@H]1O [gitoxin]
toxicity to normal cells (viability) [5, 11]: not to normal cells | toxicity to primary melanomas (viability) [8]: toxic to all tested primary melanomas
